Assay results reported in patent US20240199548A1, “NOVEL COMPOUNDS USEFUL AS STING AGONISTS AND USES THEREOF” (Jacobio Pharmaceuticals Co., Ltd., priority 2021, published 2024).

Target: human STING WT protein (Homo sapiens, UniProt Q86WV6)
Experiment: Human STING WT binding assay (Cisbio HTRF)
Settings: HTRF competition with STING WT ligand d2, 6 His-tagged human STING WT, 3 hours at RT; read-out: hSTING WT binding IC50
Procedure: Example A: Human STING WT Binding Assay
Cisbio Bioassays' human STING WT binding assay (#64 BDSTGPEG & 64 BDSTGPEH, Cisbio) is for quantitative measurement of human STING WT ligand using HTRF® technology.
Negative control: Dispense 5 μL of diluent into each negative control well. Standard: Dispense 5 μL of each Human STING WT Standard 2′3′-cGAMP (Std 0-Std 7) into each standard well. Compound: Dispense 5 μL of compound into each compound well.
Negative control: Add 5 μL of detection buffer to all wells. Other wells: Add 5 μL of human STING WT protein 6 His-tagged protein to all wells.
Add 10 μL of premixed STING WT ligand d2 reagent and 6 His Tb antibody working solution to all wells.
Seal the plate and incubate 3 hours at RT or at Over Night if necessary.
Remove the plate sealer and read on an HTRF® compatible reader (PerkinElmer, USA). Results were analyzed with a two-wavelength signal ratio:intensity (665 nm)/intensity (620 nm).
Fit the data in GraphPad to obtain IC50 values using equation (2)
Y=Bottom+(Top−Bottom)/(1+10^((Log IC50−X)*Hill Slope)) Equation (2)
Y is HTRF Ratio and X is compound concentration.

human STING WT protein, sequence (Q86WV6 whole entry H232R): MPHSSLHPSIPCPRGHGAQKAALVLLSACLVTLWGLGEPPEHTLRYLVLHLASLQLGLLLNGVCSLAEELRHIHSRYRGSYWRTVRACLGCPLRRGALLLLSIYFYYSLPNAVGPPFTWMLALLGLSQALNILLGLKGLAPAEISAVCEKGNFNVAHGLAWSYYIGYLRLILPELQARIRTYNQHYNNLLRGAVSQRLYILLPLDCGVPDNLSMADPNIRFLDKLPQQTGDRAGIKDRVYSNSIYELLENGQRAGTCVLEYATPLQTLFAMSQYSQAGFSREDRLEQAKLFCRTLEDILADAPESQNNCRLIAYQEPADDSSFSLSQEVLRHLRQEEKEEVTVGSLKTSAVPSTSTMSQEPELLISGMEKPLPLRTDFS

Structure (SMILES)	IC50 [nM]
COc1cc2c(cc1OCCCOc1cc3c(cc1OC)CN(C(=O)CCC(=O)O)C3)CN(C(=O)CCC(=O)O)C2 [Example 1, 4,4′-((propane-1,3-diylbis(oxy))bis(6-methoxyisoindoline-5,2-diyl))bis(4-oxobutanoic Acid)]	< 0.1
COc1cc2c(cc1OCCCOc1cc3c(c(F)c1OC)CN(C(=O)CCC(=O)O)C3)CN(C(=O)CCC(=O)O)C2 [Example 2, 4-(6-(3-((2-(3-carboxypropanoyl)-6-methoxyisoindolin-5-yl)oxy)propoxy)-4-fluoro-5-methoxyisoindolin-2-yl)-4-oxobutanoic Acid]	33.7
COc1cc2c(cc1OCCCOc1cc3c(cc1OC)CN(C(=O)C[C@H](C)C(=O)O)C3)CN(C(=O)CCC(=O)O)C2 [Example 3, Sodium (S)-4-(5-(3-((2-(3-carboxylatopropanoyl)-6-methoxyisoindolin-5-yl)oxy)propoxy)-6-methoxyisoindolin-2-yl)-2-methyl-4-oxobutanoate]	1.63
COc1cc2c(cc1OCCCOc1c(OC)cc3c(c1F)CN(C(=O)CCC(=O)O)C3)CN(C(=O)CCC(=O)O)C2 [Example 4, 4-(5-(3-((2-(3-carboxypropanoyl)-4-fluoro-6-methoxyisoindolin-5-yl)oxy)propoxy)-6-methoxyisoindolin-2-yl)-4-oxobutanoic Acid]	0.68
COc1cc2c(nc1OCCCOc1nc3c(cc1OC)CN(C(=O)CCC(=O)O)C3)CN(C(=O)CCC(=O)O)C2 [Example 5, 4,4′-((propane-1,3-diylbis(oxy))bis(3-methoxy-5,7-dihydro-6H-pyrrolo[3,4-b]pyridine-2,6-diyl))bis(4-oxobutanoic Acid)]	3.28
COc1cc2c(c(F)c1OCCCOc1c(OC)cc3c(c1F)CN(C(=O)CCC(=O)O)C3)CN(C(=O)CCC(=O)O)C2 [Example 9, 4,4′-((propane-1,3-diylbis(oxy))bis(4-fluoro-6-methoxyisoindoline-5,2-diyl))bis(4-oxobutanoic acid)]	0.32
C=C(COc1cc2c(cc1OC)CN(C(=O)CCC(=O)O)C2)COc1cc2c(cc1OC)CN(C(=O)CCC(=O)O)C2 [Example 10, 4,4′-(((2-methylenepropane-1,3-diyl)bis(oxy))bis(6-methoxyisoindoline-5,2-diyl))bis(4-oxobutanoic acid)]	150
COc1cc2c(c(F)c1OCCCOc1c(OC)cc3c(c1Cl)CN(C(=O)CCC(=O)O)C3)CN(C(=O)CCC(=O)O)C2 [Example 13, 4-(5-(3-((2-(3-carboxypropanoyl)-4-chloro-6-methoxyisoindolin-5-yl)oxy)propoxy)-4-fluoro-6-methoxyisoindolin-2-yl)-4-oxobutanoic acid]	149
COc1cc2c(cc1OCCCOc1cc3c(cc1OC)CN(C(=O)NCCC(=O)O)C3)CN(C(=O)CCC(=O)O)C2 [Example 14, 4-(5-(3-((2-((2-carboxyethyl)carbamoyl)-6-methoxyisoindolin-5-yl)oxy)propoxy)-6-methoxyisoindolin-2-yl)-4-oxobutanoic acid]	144
